The values that follow come from US20260015350A1, “AZAQUINAZOLINE PAN-KRAS INHIBITORS” (Mirati Therapeutics, Inc., priority 2022, published 2026).

By IC50 is commonly meant the concentration at which inhibition is half-maximal.

In test [1] the test system is KRas-mediated phosphorylation of ERK in A549 cells. Put plainly: Inhibition of KRas-mediated phosphorylation of ERK (Cisbio HTRF pERK), A549 cells. In kind it is cell-based. Conditions: Homo sapiens, HTRF pERK. The method in brief:
(§1)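 Phosphorylated ERK was quantified by HTRF using d2-conjugate and Cryptate antibodies added to lysates for 2 hrs at room temperature.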

Test [2] deals with KRas-mediated phosphorylation of ERK in AsPC-1 cells. Put plainly: Inhibition of KRas-mediated phosphorylation of ERK (Cisbio HTRF pERK), AsPC-1 cells. The format is cell-based. Conditions: Homo sapiens, ASPC1, AsPC-1 cells; HTRF pERK. The method in brief: (§2)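 Using 6,000 cells per well, compounds are applied for 3 hrs and cells then lysed at 4° C with shaking for 40 mins. Phospho-ERK is measured by HTRF after 2 hrs of lysate incubation with the d2/Cryptate antibody mixture.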

The next test concerns the target T1, KRas^G12R (Homo sapiens, UniProt P01116, G12R).
T1 construct: Biotinylated KRas (corresponding to amino acids 1-169, produced at Accelegan Inc.); biotin (biotinylated); purchased Accelegan Inc
Put plainly: KRas binding assay (TR-FRET tracer displacement), KRas G12R.

Test [3] deals with KRas-mediated phosphorylation of ERK in PSN1 cells. Put plainly: Inhibition of KRas-mediated phosphorylation of ERK (Cisbio HTRF pERK), PSN1 cells. Conditions: Homo sapiens. In kind it is cell-based. The essentials: (§3)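 Seeding density was 6,000 cells/well; medium RPMI, 10% FBS. Read-out by homogeneous time-resolved fluorescence (pERK) after 4 hours covered at room temperature.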
A general note: In TR-FRET formats the signal depends on donor and acceptor labels being close together.

Test [4] deals with KRas-mediated phosphorylation of ERK in H358 cells. Put plainly: Inhibition of KRas-mediated phosphorylation of ERK (Cisbio HTRF pERK), H358 cells. In kind it is cell-based. Conditions: Homo sapiens, NCI-H358, HTRF pERK. The method in brief: as §2
The test system of test [5] is KRas-mediated phosphorylation of ERK in MKN1 cells. Put plainly: Inhibition of KRas-mediated phosphorylation of ERK (Cisbio HTRF pERK), MKN1 cells. The format is cell-based. Conditions: Homo sapiens, MKN-1. The method in brief:
as §3

Test [6] has as its system KRas-mediated phosphorylation of ERK in H727 cells. Put plainly: Inhibition of KRas-mediated phosphorylation of ERK (Cisbio HTRF pERK), H727 cells. The format is cell-based. Conditions: Homo sapiens, NCI-H727, H727 cells; HTRF pERK. The method in brief: as §2
For test [7], the system named is KRas-mediated phosphorylation of ERK in HCT116 cells. Put plainly: Inhibition of KRas-mediated phosphorylation of ERK (Cisbio HTRF pERK), HCT116 cells. Conditions: Homo sapiens, HCT-116, HTRF pERK. The format is cell-based. The essentials:
as §1

The subject of test [8] is KRas-mediated phosphorylation of ERK in H460 cells. Put plainly: Inhibition of KRas-mediated phosphorylation of ERK (Cisbio HTRF pERK), H460 cells. The format is cell-based. Conditions: Homo sapiens, NCI-H460, HTRF pERK. The essentials:
as §2

A further test deals with T2, KRas^G12V (Homo sapiens, UniProt P01116, G12V).
T2 construct: Biotinylated KRas (corresponding to amino acids 1-169, produced at Accelegan Inc.); biotin (biotinylated); purchased Accelegan Inc
Put plainly: KRas binding assay (TR-FRET tracer displacement), KRas G12V.

The target in another test is T3, KRas^G12D (Homo sapiens, UniProt P01116, G12D).
T3 construct: Biotinylated KRas (corresponding to amino acids 1-169, produced at Accelegan Inc.); biotin (biotinylated); purchased Accelegan Inc
Put plainly: KRas binding assay (TR-FRET tracer displacement), KRas G12D.

T2 sequence (P01116 1-169 isoform P01116-2 G12V): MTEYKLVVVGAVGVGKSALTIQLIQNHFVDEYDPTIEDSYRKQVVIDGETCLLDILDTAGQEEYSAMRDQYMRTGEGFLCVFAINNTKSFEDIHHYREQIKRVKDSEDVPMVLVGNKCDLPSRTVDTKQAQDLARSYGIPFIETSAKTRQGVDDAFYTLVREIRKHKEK
T3 sequence (P01116 1-169 isoform P01116-2 G12D): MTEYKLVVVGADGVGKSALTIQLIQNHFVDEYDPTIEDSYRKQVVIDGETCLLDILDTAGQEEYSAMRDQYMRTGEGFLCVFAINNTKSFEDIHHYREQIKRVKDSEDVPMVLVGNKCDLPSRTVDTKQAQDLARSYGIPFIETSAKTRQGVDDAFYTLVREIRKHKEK
T1 sequence (P01116 1-169 isoform P01116-2 G12R): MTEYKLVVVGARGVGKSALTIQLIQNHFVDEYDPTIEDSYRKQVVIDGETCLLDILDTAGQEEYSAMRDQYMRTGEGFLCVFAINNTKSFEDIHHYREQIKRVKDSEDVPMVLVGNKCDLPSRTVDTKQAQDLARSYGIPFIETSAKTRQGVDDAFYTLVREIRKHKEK

Take `CCc1c(F)ccc2cc3[nH]ncc3c(-c3ncc4c(N5C[C@@H]6C[C@H](C5)[C@H](O)C6)nc(OC[C@@]56CCCN5C[C@H](F)C6)nc4c3F)c12` [Example 825, (1R,5R,6R)-3-(7-(5-ethyl-6-fluoro-1H-benzo[f]indazol-4-yl)-8-fluoro-2-(((2R,7aS)-2-fluorotetrahydro-1H-pyrrolizin-7a(5H)-yl)methoxy)pyrido[4,3-d]pyrimidin-4-yl)-3-azabicyclo[3.2.1]octan-6-ol]: the IC50 in test [1] was 83 nM; in test [2] it was 180 nM; at KRas^G12R, 3 nM; in [3], 5920 nM; in test [4], 50 nM; in [5], 36 nM. In addition, the IC50 was 56 nM in test [6]; 369 nM in test [7]; 98 nM in test [8]; less than 2 nM on KRas^G12V; 6 nM on KRas^G12D.

As to `CCc1c(F)ccc2cc(O)cc(-c3ncc4c(N5CCC[C@@](C)(O)C5)nc(OC[C@@]56CCCN5[C@H](COC)CC6)nc4c3F)c12` [Example 826, (R)-1-(7-(8-ethyl-7-fluoro-3-hydroxynaphthalen-1-yl)-8-fluoro-2-(((3S,7aS)-3-(methoxymethyl)tetrahydro-1H-pyrrolizin-7a(5H)-yl)methoxy)pyrido[4,3-d]pyrimidin-4-yl)-3-methylpiperidin-3-ol], the half-inhibitory concentration (IC50) was 44 nM in test [1]; 12 nM in [2]; less than 2 nM at KRas^G12R; 2390 nM in [3]; 9 nM in test [4]; 7 nM in test [5]. For the same compound, the 50% inhibitory concentration (IC50) in [6] is 51 nM; in [7] it was 74 nM; in test [8], 30 nM; on KRas^G12V, less than 2 nM; on KRas^G12D it was less than 2 nM.

In the case of `CCc1c(F)ccc2cc(O)cc(-c3ncc4c(N5CCC[C@@](C)(O)C5)nc(OCC56CC5CN(C)C6)nc4c3F)c12` (stereo partly drawn) [Example 827, (3R)-1-(7-(8-ethyl-7-fluoro-3-hydroxynaphthalen-1-yl)-8-fluoro-2-((3-methyl-3-azabicyclo[3.1.0]hexan-1-yl)methoxy)pyrido[4,3-d]pyrimidin-4-yl)-3-methylpiperidin-3-ol], the IC50 is 159 nM in test [1]; 67 nM in test [2]; 3 nM on KRas^G12R; greater than 10000 nM in test [3]; 68 nM in [4]; 41 nM in [5]. The IC50 in test [6] was 242 nM; in test [7], 180 nM; in [8], 92 nM; on KRas^G12V it was less than 2 nM; at KRas^G12D it was less than 2 nM.

Turning to `CCc1c(F)ccc2cc(O)cc(-c3ncc4c(N5CC6CCC(C(N)=O)(C6)C5)nc(OC[C@@]56CCCN5C[C@H](F)C6)nc4c3F)c12` (stereo partly drawn) [Example 834, 3-(7-(8-ethyl-7-fluoro-3-hydroxynaphthalen-1-yl)-8-fluoro-2-(((2R,7aS)-2-fluorotetrahydro-1H-pyrrolizin-7a(5H)-yl)methoxy)pyrido[4,3-d]pyrimidin-4-yl)-3-azabicyclo[3.2.1]octane-1-carboxamide], the IC50 in test [1] was 2750 nM; in test [2], 3450 nM; on KRas^G12R it was 5 nM; in [3] it was greater than 10000 nM; in test [4], 186 nM; in [5], 87 nM. Also, the IC50 was found to be 1140 nM in [6]; 1200 nM in test [7]; 797 nM in test [8]; 3 nM on KRas^G12V; 8 nM on KRas^G12D.

Consider `C#Cc1c(F)ccc2cc(O)cc(-c3ncc4c(N5CCCC6(CC(O)C6)C5)nc(OC[C@]56CCCN5[C@H](COC(=O)N(C)C)CC6)nc4c3F)c12` (stereo partly drawn) [Example 835, ((3S,7aR)-7a-(((7-(8-ethynyl-7-fluoro-3-hydroxynaphthalen-1-yl)-8-fluoro-4-(2-hydroxy-6-azaspiro[3.5]nonan-6-yl)pyrido[4,3-d]pyrimidin-2-yl)oxy)methyl)hexahydro-1H-pyrrolizin-3-yl)methyl dimethylcarbamate], for which the IC50 was 192 nM in test [1]; 146 nM in test [2]; less than 2 nM at KRas^G12R; 1620 nM in test [3]; 31 nM in test [4]; 20 nM in test [5]. Further, the IC50 was 72 nM in test [6]; 137 nM in test [7]; 72 nM in test [8]; less than 2 nM on KRas^G12V; 3 nM on KRas^G12D.

Take `CCc1c(F)ccc2cc(O)cc(-c3ncc4c(N5CCOC[C@@]6(CCO6)C5)nc(OC[C@@]56CCCN5C[C@H](F)C6)nc4c3F)c12` [Example 836, 5-ethyl-6-fluoro-4-(8-fluoro-2-(((2R,7aS)-2-fluorotetrahydro-1H-pyrrolizin-7a(5H)-yl)methoxy)-4-((R)-1,6-dioxa-9-azaspiro[3.6]decan-9-yl)pyrido[4,3-d]pyrimidin-7-yl)naphthalen-2-ol]: the half-maximal inhibitory concentration (IC50) in test [1] was 69 nM; in [2], 386 nM; on KRas^G12R, 4 nM; in test [3], 9790 nM; in test [4], 22 nM; in [5], 19 nM. The half-maximal inhibitory concentration (IC50) in [6] is 231 nM; in [7] it was 119 nM; in test [8], 32 nM; on KRas^G12V it was 6 nM; at KRas^G12D it was 24 nM.

As for `CCc1c(F)ccc2cc(O)cc(-c3ncc4c(N5CCOC[C@]6(CCO6)C5)nc(OC[C@@]56CCCN5C[C@H](F)C6)nc4c3F)c12` [Example 837, 5-ethyl-6-fluoro-4-(8-fluoro-2-(((2R,7aS)-2-fluorotetrahydro-1H-pyrrolizin-7a(5H)-yl)methoxy)-4-((S)-1,6-dioxa-9-azaspiro[3.6]decan-9-yl)pyrido[4,3-d]pyrimidin-7-yl)naphthalen-2-ol], the 50% inhibitory concentration (IC50) was 11 nM in test [1]; 4 nM in test [2]; less than 2 nM on KRas^G12R; 2990 nM in [3]; 6 nM in [4]; 3 nM in [5]. Besides, the IC50 in test [6] was 23 nM; in test [7] it was 45 nM; in test [8] it was 14 nM; at KRas^G12V it was less than 2 nM; at KRas^G12D, less than 2 nM.

In the case of `CCc1c(F)ccc2cc(O)cc(-c3ncc4c(N5CC6CCC(COCCO)(C6)C5)nc(OC[C@@]56CCCN5C[C@H](F)C6)nc4c3F)c12` (stereo partly drawn) [Example 840, 5-ethyl-6-fluoro-4-(8-fluoro-2-(((2R,7aS)-2-fluorotetrahydro-1H-pyrrolizin-7a(5H)-yl)methoxy)-4-(1-((2-hydroxyethoxy)methyl)-3-azabicyclo[3.2.1]octan-3-yl)pyrido[4,3-d]pyrimidin-7-yl)naphthalen-2-ol], the IC50 in [1] was 422 nM; in test [2], 575 nM; on KRas^G12R it was 7 nM; in [3], greater than 10000 nM; in test [4], 180 nM; in [5], 38 nM. In addition, the IC50 turned out to be 299 nM in test [6]; 239 nM in [7]; 145 nM in test [8]; 4 nM at KRas^G12V; 9 nM at KRas^G12D.

Regarding `CCc1c(F)ccc2cc(O)cc(-c3ncc4c(N5C[C@H]6CC[C@@H](C5)[C@@H]6O)nc(OC[C@@]56CCCN5C[C@H](F)C6)nc4c3F)c12` [Example 842, (1R,5S,8R)-3-(7-(8-ethyl-7-fluoro-3-hydroxynaphthalen-1-yl)-8-fluoro-2-(((2R,7aS)-2-fluorotetrahydro-1H-pyrrolizin-7a(5H)-yl)methoxy)pyrido[4,3-d]pyrimidin-4-yl)-3-azabicyclo[3.2.1]octan-8-ol], the IC50 in [1] is 56 nM; in test [2], 479 nM; at KRas^G12R, less than 2 nM; in [3], greater than 10000 nM; in test [4], 9 nM; in test [5], 1 nM. In addition, the IC50 in test [6] is 97 nM; in [7], 41 nM; in test [8], 20 nM; on KRas^G12V, less than 2 nM; at KRas^G12D, 5 nM.
